Reference: patent publication US12545706B2, “Pharmaceutical composition for preventing or treating Behcet's disease and rheumatoid arthritis, containing peptide or mixture thereof as active ingredient” (AJOU UNIVERSITY INDUSTRY-ACADEMIC COOPERATION FOUNDATION, priority 2019, dated 2026)
Where a SMILES comes first, the peptide text is derived from it.

Experiments:
[1] = Retention of fluorescently labeled peptide in abdominal cavity (FACS of intraperitoneal macrophages); type: in vivo, mouse; conditions: for stability in vivo: conclusion from FIG. 9 and FIG. 10
Protocol: After intraperitoneal injection of the fluorescently labeled peptide P4 into mice, intraperitoneal macrophages were isolated, and the frequency of fluorescently labeled macrophages was analyzed by FACS to measure the retention time of the peptides in the abdominal cavity, which was shown in FIG. 9.
In addition, the P1, P2, and P4 peptides were labeled with each different fluorescence, and the three types were mixed and administered to normal mice.

[2] = tested on: mouse animal model with Behcet's disease (HSV type 1 infected ICR mice); assay: Therapeutic effect on skin ulcers and skin inflammation in mouse animal model with Behcet's disease; type: in vivo; conditions: peptides administered respectively; symptoms visually checked; FIG. 1
Protocol: Male ICR mice (4-5 weeks of age) were infected with HSV type 1 (1×10^6, 20 μL) grown in Vero cells as previously reported (S. Sohn et al., Eur J Dermatol, 8 (1): 21-23, 1998). 10 days after the first virus inoculation, the mice were infected twice by inoculating the virus again and monitored for 32 weeks. Animals were treated according to the guidelines provided by Institutional Animal Care and Use Committee (IACUC) of School of Medicine at Ajou University. The study protocol was approved by IACUC (Approval No.: AMC-2016-0010).
Symptoms include skin ulcers, skin pustule, genital ulcers, erythema, mouth ulcers, ear inflammation, arthritis, red eyes (left and right), decreased visual acuity (left and right), weight loss, and facial swelling. Mouth ulcers, genital ulcers, skin ulcers, and eye symptoms were classified as major symptoms while the other symptoms were mild.
Mice showing one or more major symptoms with one mild symptom were considered as BD mice, the score for each symptom was calculated as 1, and the sum of the scores was used to determine the severity of BD. When symptoms disappeared or the size of the lesion was reduced by 20% or more, it was classified as symptom improved state. The disease severity score for BD was calculated based on the BD Activity Index as described in the BD Activity Form (www.behcet.ws/pdf/BehcetsDiseaseActivityForm.pdf). […]

[3] = tested on: mouse model with collagen-induced arthritis; assay: Severity of arthritis in mouse model with collagen-induced arthritis; type: in vivo
Protocol: To prepare a mouse model with rheumatoid arthritis, subcutaneous injection (first immunization) was performed on the tail of a group of 8-week-old male ICR normal mice (average weight: 20 g) injected with 50 μg of a mixture obtained by mixing type II collagen with Complete Freund's adjuvant (CFA) and paraffin oil in the same amount. Two weeks later, the same substance was subcutaneously injected into the tail in the same manner to prepare an animal model with rheumatoid arthritis.
In the same manner as in Example 2, the mixture of P1, P2 and P4 peptides (P124) prepared in Example 1 was administered to the skin of mice as an external skin preparation.
In addition, the peptide mixture (P124) was treated as an external skin preparation once a day for 10 consecutive days, the arthritis treatment effect was checked after 5 weeks, and the results were shown in FIG. 5.

[4] = tested on: CD4+CD25+ cells, CD4+CD25+FoxP3+ cells, IL-17+ cells; assay: Flow cytometry (FACS) of cells isolated from treated arthritis mouse model; type: in vivo; set-up: IL-17: unit not given here
[5] = intraperitoneal injection, intraperitoneal macrophages, FIG. 9
[6] = FACS frequency, Table 1, in % (unit assumed)

## CC(C)[C@H](NC(=O)[C@H](CCCCN)NC(=O)[C@H](CC(N)=O)NC(=O)[C@H](CS)NC(=O)[C@@H](N)Cc1ccc(O)cc1)C(=O)N[C@@H](Cc1c[nH]cn1)C(=O)N[C@H](C(=O)N[C@@H](CS)C(=O)N[C@@H](CCCNC(=N)N)C(=O)N[C@@H](CC(N)=O)C(=O)NCC(=O)O)[C@@H](C)O [P2, YCNKVHTCRNG] (H-YCNKVHTCRNG-OH; N-terminus and C-terminus assumed)
[1]
  stability in vivo: stably maintained

## ENICFKRFYEGNLLGKRYPRGCA [P5]
[2]
  skin ulcers and skin inflammation: alleviated

## CC[C@H](C)[C@H](NC(=O)[C@H](CC(N)=O)NC(=O)[C@H](CCC(=O)O)NC(=O)CNC(=O)[C@H](CC(N)=O)NC(=O)[C@H](CCCNC(=N)N)NC(=O)[C@H](CS)NC(=O)[C@@H](NC(=O)[C@@H](N)Cc1c[nH]cn1)[C@@H](C)O)C(=O)N[C@@H](CS)C(=O)N[C@@H](Cc1ccccc1)C(=O)O [P4, HTCRNGENICF] (H-HTCRNGENICF-OH; N-terminus and C-terminus assumed)
[1]
  stability in vivo: stably maintained
[1]; [5]
  time at which frequency of cells including the peptide was the highest: 24 h
  time up to which frequency of cells including the peptide was maintained: up to 72 hours

## CC[C@H](C)[C@H](NC(=O)[C@@H](N)CC(C)C)C(=O)N[C@@H](CS)C(=O)N1CCC[C@H]1C(=O)N[C@@H](CCC(=O)O)C(=O)N[C@@H](CCCCN)C(=O)N[C@@H](Cc1ccc(O)cc1)C(=O)N[C@@H](CS)C(=O)N[C@@H](CC(N)=O)C(=O)N[C@@H](CCCCN)C(=O)N[C@H](C(=O)N[C@@H](Cc1c[nH]cn1)C(=O)N[C@H](C(=O)O)[C@@H](C)O)C(C)C [P1, LICPEKYCNKVHT] (H-LICPEKYCNKVHT-OH; N-terminus and C-terminus assumed)
[1]
  stability in vivo: stably maintained

## CN(Cc1cnc2nc(N)nc(N)c2n1)c1ccc(C(=O)N[C@@H](CCC(=O)O)C(=O)O)cc1 [Methotrexate]
[3]; FIG. 4, 10 weeks follow-up
  duration of the effect on severity score for arthritis: effect decreased after 7 weeks
[3]; external skin preparation, compared to PBS control group, followed 10 weeks, FIG. 4
  severity score for arthritis: reduction in the severity score for arthritis was also shown
[4]; FACS frequency, Table 1
  IL-17: 13.15 ± 1.34
[4]; [6]
  CD4 + CD25+: 3.7 ± 1.13
  CD4 + CD25 + FoxP3+: 1.45 ± 0.49
[4]; FACS, Table 1
  ROR-gammaT: 6.2 ± 0.42
